Where “and” joins values, the source holds several entries; their conditions need not be identical. Identical values can stand only once. Numbers after ± are expanded uncertainties.
How the values were obtained:
[1] = molar enthalpy of vaporization or sublimation; settings: 298.15 K; Crystal; Torsion-effucion
[2] = Molar enthalpy of transition or fusion; settings: Crystal; DSC
[3] = molar heat capacity at constant pressure; settings: 101.33 kPa, Crystal, Flow calorimetry
[4] = molar enthalpy of transition or fusion; settings: DSC

O=C(O)c1cc(Br)cc(Br)c1 [3,5-dibromobenzoic acid]
Settings | Molar enthalpy of transition or fusion [kcal/mol] | molar enthalpy [kcal/mol]
[1] | – | 28.8 ± 0.478
[2] | 20.2 ± 0.526 | –

Settings | Normal melting temperature [°C] | molar heat capacity at constant pressure
Crystal, DTA | 218.1 ± 0.5 | –
[3], 288.2 K | – | 215.7 ± 0.9 J/K/mol and 215.8 ± 0.9 J/K/mol
[3], 290.2 K | – | 217.3 ± 1 J/K/mol and 217.5 ± 1 J/K/mol and 217.4 ± 1 J/K/mol
[3], 292.2 K | – | 219.2 ± 0.9 J/K/mol and 219.3 ± 0.9 J/K/mol and 219.4 ± 0.9 J/K/mol
[3], 294.2 K | – | 220.3 ± 0.8 J/K/mol and 220.4 ± 0.8 J/K/mol
[3], 296.2 K | – | 221.6 ± 0.8 J/K/mol and 221.5 ± 0.8 J/K/mol
[3], 298.2 K | – | 223.2 ± 1 J/K/mol and 223.1 ± 1 J/K/mol and 223 ± 1 J/K/mol
[3], 300.2 K | – | 224.5 ± 0.9 J/K/mol and 224.9 ± 0.9 J/K/mol and 224.7 ± 0.9 J/K/mol
[3], 302.2 K | – | 225.8 ± 0.8 J/K/mol and 225.7 ± 0.8 J/K/mol
[3], 304.2 K | – | 227.2 ± 0.8 J/K/mol and 227.1 ± 0.8 J/K/mol and 227 ± 0.8 J/K/mol
[3], 306.2 K | – | 228.4 ± 0.8 J/K/mol and 228.3 ± 0.8 J/K/mol
[3], 308.2 K | – | 229.6 ± 1 J/K/mol and 229.8 ± 1 J/K/mol and 229.9 ± 1 J/K/mol
[3], 310.2 K | – | 231.5 ± 0.9 J/K/mol and 231.6 ± 0.9 J/K/mol
[3], 312.2 K | – | 232.5 ± 0.8 J/K/mol and 232.3 ± 0.8 J/K/mol and 232.4 ± 0.8 J/K/mol
[3], 314.2 K | – | 234.1 ± 0.9 J/K/mol and 233.9 ± 0.9 J/K/mol and 234 ± 0.9 J/K/mol
[3], 316.2 K | – | 235.2 ± 0.9 J/K/mol and 235.3 ± 0.9 J/K/mol
[3], 318.2 K | – | 236.9 ± 1 J/K/mol and 236.7 ± 1 J/K/mol and 237 ± 1 J/K/mol
[3], 320.2 K | – | 238.5 ± 0.7 J/K/mol and 238.4 ± 0.7 J/K/mol
[3], 322.2 K | – | 239 ± 0.8 J/K/mol and 239.2 ± 0.8 J/K/mol
[3], 324.2 K | – | 240.7 ± 1 J/K/mol and 240.6 ± 1 J/K/mol and 240.5 ± 1 J/K/mol
[3], 326.2 K | – | 242.5 ± 1 J/K/mol and 242.4 ± 1 J/K/mol

Settings | molar enthalpy of transition or fusion | vapor or sublimation pressure
355.2 K, Crystal, Torsion effusion method | – | 1.9e-05 ± 2e-05 kPa
358 K, Crystal, Torsion effusion method | – | 2.8e-05 ± 2e-05 kPa
359 K, Crystal, Torsion effusion method | – | 2.8e-05 ± 2e-05 kPa
360.5 K, Crystal, Torsion effusion method | – | 3.8e-05 ± 2e-05 kPa
362.5 K, Crystal, Torsion effusion method | – | 4.7e-05 ± 2e-05 kPa
363.8 K, Crystal, Torsion effusion method | – | 4.7e-05 ± 2e-05 kPa
365.2 K, Crystal, Torsion effusion method | – | 5.7e-05 ± 2e-05 kPa
365.6 K, Crystal, Torsion effusion method | – | 5.7e-05 ± 2e-05 kPa
366.4 K, Crystal, Torsion effusion method | – | 6.6e-05 ± 2e-05 kPa
366.8 K, Crystal, Torsion effusion method | – | 7.6e-05 ± 2.1e-05 kPa
369.2 K, Crystal, Torsion effusion method | – | 9.5e-05 ± 2.1e-05 kPa
371 K, Crystal, Torsion effusion method | – | 0.000114 ± 2.1e-05 kPa
371.2 K, Crystal, Torsion effusion method | – | 0.000114 ± 2.1e-05 kPa
371.3 K, Crystal, Torsion effusion method | – | 0.000114 ± 2.1e-05 kPa
372.5 K, Crystal, Torsion effusion method | – | 0.000133 ± 2.2e-05 kPa
373 K, Crystal, Torsion effusion method | – | 0.000133 ± 2.2e-05 kPa
373.7 K, Crystal, Torsion effusion method | – | 0.000133 ± 2.2e-05 kPa
374 K, Crystal, Torsion effusion method | – | 0.000152 ± 2.2e-05 kPa
375.6 K, Crystal, Torsion effusion method | – | 0.000189 ± 2.3e-05 kPa
376 K, Crystal, Torsion effusion method | – | 0.000189 ± 2.3e-05 kPa
377 K, Crystal, Torsion effusion method | – | 0.000208 ± 2.4e-05 kPa
377.9 K, Crystal, Torsion effusion method | – | 0.000227 ± 2.4e-05 kPa
378.2 K, Crystal, Torsion effusion method | – | 0.000208 ± 2.4e-05 kPa
380.2 K, Crystal, Torsion effusion method | – | 0.000284 ± 2.7e-05 kPa
380.4 K, Crystal, Torsion effusion method | – | 0.000284 ± 2.7e-05 kPa
381.3 K, Crystal, Torsion effusion method | – | 0.000303 ± 2.7e-05 kPa
381.5 K, Crystal, Torsion effusion method | – | 0.000303 ± 2.7e-05 kPa
383.2 K, Crystal, Torsion effusion method | – | 0.000398 ± 3.2e-05 kPa
383.7 K, Crystal, Torsion effusion method | – | 0.000398 ± 3.2e-05 kPa
384.1 K, Crystal, Torsion effusion method | – | 0.000379 ± 3.1e-05 kPa
384.3 K, Crystal, Torsion effusion method | – | 0.000436 ± 3.3e-05 kPa
386.3 K, Crystal, Torsion effusion method | – | 0.000474 ± 3.5e-05 kPa
386.6 K, Crystal, Torsion effusion method | – | 0.000531 ± 3.8e-05 kPa
386.9 K, Crystal, Torsion effusion method | – | 0.000531 ± 3.8e-05 kPa
387.7 K, Crystal, Torsion effusion method | – | 0.000531 ± 3.8e-05 kPa
389.8 K, Crystal, Torsion effusion method | – | 0.000758 ± 5.1e-05 kPa
390.1 K, Crystal, Torsion effusion method | – | 0.00072 ± 4.8e-05 kPa
390.8 K, Crystal, Torsion effusion method | – | 0.000796 ± 5.3e-05 kPa
391.1 K, Crystal, Torsion effusion method | – | 0.000739 ± 4.9e-05 kPa
393.1 K, Crystal, Torsion effusion method | – | 0.000947 ± 6.1e-05 kPa
393.7 K, Crystal, Torsion effusion method | – | 0.000947 ± 6.1e-05 kPa
394 K, Crystal, Torsion effusion method | – | 0.001004 ± 6.5e-05 kPa
395.6 K, Crystal, Torsion effusion method | – | 0.001213 ± 7.7e-05 kPa
395.9 K, Crystal, Torsion effusion method | – | 0.001175 ± 7.5e-05 kPa
500.1 K, Liquid, isothermal thermogravimetric | – | 1.128 ± 0.081 kPa
500.1 K, Liquid, non-isothermal thermogravimetric | – | 1.173 ± 0.084 kPa
500.7 K, Liquid, non-isothermal thermogravimetric | – | 1.118 ± 0.11 kPa
501.1 K, Liquid, isothermal thermogravimetric | – | 1.191 ± 0.062 kPa
501.1 K, Liquid, non-isothermal thermogravimetric | – | 1.135 ± 0.12 kPa
501.3 K, Liquid, non-isothermal thermogravimetric | – | 1.141 ± 0.099 kPa
501.6 K, Liquid, isothermal thermogravimetric | – | 1.21 ± 0.081 kPa
502.2 K, Liquid, isothermal thermogravimetric | – | 1.21 ± 0.082 kPa
504 K, Liquid, non-isothermal thermogravimetric | – | 1.377 ± 0.1 kPa
504.6 K, Liquid, isothermal thermogravimetric | – | 1.376 ± 0.081 kPa
504.9 K, Liquid, non-isothermal thermogravimetric | – | 1.33 ± 0.1 kPa
505.1 K, Liquid, isothermal thermogravimetric | – | 1.405 ± 0.082 kPa
505.2 K, Liquid, non-isothermal thermogravimetric | – | 1.358 ± 0.1 kPa
505.4 K, Liquid, isothermal thermogravimetric | – | 1.401 ± 0.089 kPa
505.6 K, Liquid, non-isothermal thermogravimetric | – | 1.401 ± 0.1 kPa
506.3 K, Liquid, isothermal thermogravimetric | – | 1.426 ± 0.091 kPa
508.2 K, Liquid, non-isothermal thermogravimetric | – | 1.617 ± 0.11 kPa
508.8 K, Liquid, isothermal thermogravimetric | – | 1.646 ± 0.082 kPa
508.9 K, Liquid, isothermal thermogravimetric | – | 1.615 ± 0.082 kPa
509 K, Liquid, non-isothermal thermogravimetric | – | 1.592 ± 0.11 kPa and 1.624 ± 0.11 kPa
509.2 K, Liquid, isothermal thermogravimetric | – | 1.652 ± 0.083 kPa
509.4 K, Liquid, non-isothermal thermogravimetric | – | 1.653 ± 0.11 kPa
510.3 K, Liquid, isothermal thermogravimetric | – | 1.637 ± 0.096 kPa
512.3 K, Liquid, non-isothermal thermogravimetric | – | 1.893 ± 0.1 kPa
512.9 K, Liquid, isothermal thermogravimetric | – | 1.908 ± 0.1 kPa
513 K, Liquid, isothermal thermogravimetric | – | 1.9 ± 0.1 kPa
513.1 K, Liquid, isothermal thermogravimetric | – | 1.909 ± 0.1 kPa
513.1 K, Liquid, non-isothermal thermogravimetric | – | 1.85 ± 0.11 kPa
513.3 K, Liquid, non-isothermal thermogravimetric | – | 1.802 ± 0.11 kPa
513.5 K, Liquid, non-isothermal thermogravimetric | – | 1.882 ± 0.12 kPa
514.4 K, Liquid, isothermal thermogravimetric | – | 1.98 ± 0.1 kPa
516.3 K, Liquid, non-isothermal thermogravimetric | – | 2.222 ± 0.12 kPa
516.7 K, Liquid, isothermal thermogravimetric | – | 2.189 ± 0.089 kPa
517 K, Liquid, isothermal thermogravimetric | – | 2.217 ± 0.091 kPa
517.1 K, Liquid, isothermal thermogravimetric | – | 2.176 ± 0.089 kPa
517.1 K, Liquid, non-isothermal thermogravimetric | – | 2.15 ± 0.13 kPa and 2.187 ± 0.13 kPa
517.5 K, Liquid, non-isothermal thermogravimetric | – | 2.228 ± 0.12 kPa
518.2 K, Liquid, isothermal thermogravimetric | – | 2.223 ± 0.12 kPa
520.1 K, Liquid, non-isothermal thermogravimetric | – | 2.546 ± 0.12 kPa
520.6 K, Liquid, isothermal thermogravimetric | – | 2.505 ± 0.11 kPa
520.9 K, Liquid, isothermal thermogravimetric | – | 2.553 ± 0.11 kPa
521 K, Liquid, non-isothermal thermogravimetric | – | 2.478 ± 0.12 kPa
521.2 K, Liquid, isothermal thermogravimetric | – | 2.586 ± 0.11 kPa
521.2 K, Liquid, non-isothermal thermogravimetric | – | 2.518 ± 0.12 kPa
521.4 K, Liquid, non-isothermal thermogravimetric | – | 2.57 ± 0.11 kPa
522.5 K, Liquid, isothermal thermogravimetric | – | 2.612 ± 0.12 kPa
524.2 K, Liquid, non-isothermal thermogravimetric | – | 2.862 ± 0.11 kPa
525 K, Liquid, isothermal thermogravimetric | – | 2.943 ± 0.12 kPa and 2.941 ± 0.12 kPa
525.2 K, Liquid, non-isothermal thermogravimetric | – | 2.789 ± 0.14 kPa
525.4 K, Liquid, isothermal thermogravimetric | – | 2.995 ± 0.14 kPa
525.4 K, Liquid, non-isothermal thermogravimetric | – | 2.858 ± 0.15 kPa
525.5 K, Liquid, non-isothermal thermogravimetric | – | 2.884 ± 0.15 kPa
526.3 K, Liquid, isothermal thermogravimetric | – | 3.009 ± 0.079 kPa
528.1 K, Liquid, non-isothermal thermogravimetric | – | 3.325 ± 0.15 kPa
528.9 K, Liquid, non-isothermal thermogravimetric | – | 3.233 ± 0.13 kPa and 3.297 ± 0.14 kPa
529.2 K, Liquid, non-isothermal thermogravimetric | – | 3.322 ± 0.08 kPa
[4], 298.15 K, Crystal | 28.8 ± 1.55 kcal/mol | –
[4], 491.2 K, Crystal | 20.2 kcal/mol and 27.4 kcal/mol | –
[4], 491.2 K, Liquid | 7.03 ± 0.86 kcal/mol | –

Reference: the NIST ThermoML archive (doi:10.1016/j.fluid.2012.11.006)
